# Where a chain is given by its changes, count along the chain named. Structures can show the parent of a compound that is named as a salt.
# How the values were obtained:
# [1] = target: T1, MRGPRX2-WT (wild-type MRGPRX2 receptor) (Homo sapiens, UniProt Q96LB1); experiment: Primary HTS, Ca2+ mobilization (fluorescence ratio, B-score) in HEK293-Gα15 cells stably expressing wild-type MRGPRX2; assay type: cell-based
# T1 construct: expressed in transfected cells
# T1 sequence (Q96LB1 1-330): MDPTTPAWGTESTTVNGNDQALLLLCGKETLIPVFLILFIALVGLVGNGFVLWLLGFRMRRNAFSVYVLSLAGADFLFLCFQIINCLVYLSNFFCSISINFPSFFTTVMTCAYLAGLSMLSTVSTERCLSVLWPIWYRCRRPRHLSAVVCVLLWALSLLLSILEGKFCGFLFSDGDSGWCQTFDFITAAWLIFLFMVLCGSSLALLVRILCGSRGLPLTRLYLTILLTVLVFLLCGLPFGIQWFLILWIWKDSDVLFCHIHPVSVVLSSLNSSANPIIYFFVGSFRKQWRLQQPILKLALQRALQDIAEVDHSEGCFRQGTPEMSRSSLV
# [2] = target: T2, MRGPRX2-MUT (MRGPRX2 N62S mutation) (Homo sapiens, UniProt Q96LB1, N62S); experiment: Primary HTS, Ca2+ mobilization (fluorescence ratio, B-score) in HEK293-Gα15 cells stably expressing the MRGPRX2 N62S mutation; assay type: cell-based; conditions: Supplementary Table 2
# T2 construct: expressed in transfected cells
# T2 sequence (Q96LB1 1-330 N62S): T1 sequence (Q96LB1 1-330) with N62S
# MRGPRX2 N62S = target: T3, MRGPRX2 N62S (Homo sapiens, UniProt Q96LB1, N62S); experiment: Calcium response dose-response curves in HEK293-Gα15 cells expressing MRGPRX2 N62S; assay type: cell-based; conditions: P=0.013, unpaired t-test
# T3 construct: expressed in transfected cells
# T3 sequence (Q96LB1 1-330 N62S): T1 sequence (Q96LB1 1-330) with N62S
# MRGPRX2-WT = target: T4, MRGPRX2-WT (Homo sapiens, UniProt Q96LB1); experiment: Calcium response dose-response curves in HEK293-Gα15 cells expressing MRGPRX2-WT; assay type: cell-based
# T4 construct: expressed in transfected cells
# T4 sequence (Q96LB1 1-330): T1 sequence (Q96LB1 1-330)
# [3] = system: HEK293-Gα15 cells without MRGPRX2; experiment: Calcium release in HEK293-Gα15 cells without MRGPRX2 (negative control screening); conditions: compared to MRGPRX2-WT or MRGPRX2-N62S cells, data not shown
# MRGPRX2 = conditions: weak agonist; cited from earlier work
smiles,measurement,setting,value
COc1cccc2c1C(=O)c1c(O)c3c(c(O)c1C2=O)C[C@@](O)(C(C)=O)C[C@@H]3O[C@H]1C[C@H](N)[C@H](O)[C@H](C)O1 [Daunorubicin Hydrochloride],B-scores (WT),"[1]; 10 μM compound, Supplementary Table 2",2.95
same,B-scores (MUT),"[2]; 10 μM compound, MRGPRX2-MUT (N62S) cells",15.19
same,Change of B-scores (%),"[2]; MRGPRX2-MUT versus MRGPRX2-WT cells, 10 μM",414.49%
same,EC50 values comparing MRGPRX2-MUT to MRGPRX2-WT cells,MRGPRX2 N62S,demonstrated the LOF property
COc1cccc2c1C(=O)c1c(O)c3c(c(O)c1C2=O)C[C@@](O)(C(=O)CO)C[C@@H]3O[C@H]1C[C@H](N)[C@H](O)[C@H](C)O1 [Doxorubicin Hydrochloride],EC50,MRGPRX2-WT,131 nM
"CSCC[C@H](NC(=O)[C@H](CC(C)C)NC(=O)CNC(=O)[C@H](Cc1ccccc1)NC(=O)[C@H](Cc1ccccc1)NC(=O)[C@H](CCC(N)=O)NC(=O)[C@H](CCC(N)=O)NC(=O)[C@@H]1CCCN1C(=O)[C@H](CCCCN)NC(=O)[C@@H]1CCCN1C(=O)[C@@H](N)CCCNC(=N)N)C(N)=O [SP, substance P]",calcium response in empty HEK293-Gα15 cells,[3],no increase in calcium response was detected
CN[C@H](CC(C)C)C(=O)N[C@H]1C(=O)N[C@@H](CC(N)=O)C(=O)N[C@H]2C(=O)N[C@H]3C(=O)N[C@H](C(=O)N[C@H](C(=O)O)c4cc(O)cc(O)c4-c4cc3ccc4O)[C@H](O)c3ccc(c(Cl)c3)Oc3cc2cc(c3O[C@@H]2O[C@H](CO)[C@@H](O)[C@H](O)[C@H]2O[C@H]2C[C@](C)(N)[C@H](O)[C@H](C)O2)Oc2ccc(cc2Cl)[C@H]1O [vancomycin],B-score value,[1]; 10 μM,16.36
same,calculated EC50,MRGPRX2,60 µg/mL

# Reference: article PMC9635925, “Biological screening of a unique drug library targeting MRGPRX2” (Frontiers in Immunology, 2022)
